Source: article PMC11002876, “KcsA-Kv1.x chimeras with complete ligand-binding sites provide improved predictivity for screening selective Kv1.x blockers” (The Journal of Biological Chemistry, 2024)
Like-named read-outs stand apart in the source and are kept apart here. Where a SMILES comes first, the peptide text is derived from it.

How the values were obtained:
KcsA-Kv1.1 T+F chimera [1] = molecular target: T1, KcsA-Kv1.1 T+F chimera (Streptomyces lividans, UniProt P0A334, R52A/G53E/A54E/P55A/G56E/A57S/Q58H/L59F/I60S/T61S/Y62I/R64D/L81M); assay: Phage-binding competition assay, KcsA-Kv1.1 T+F; parameters: species or system human Kv1.1 turret and filter in Streptomyces lividans KcsA; settings: for competition binding to KcsA-Kv1.1 T+F, in words: ShK-phage competition, native peptide, Fig. 8F (ligand-binding pattern); for Rank, T+F chimera (Kv1.1): rank by competition IC50 among ShK, KTX1, MTX
T1 sequence (P0A334 1-160 R52A/G53E/A54E/P55A/G56E/A57S/Q58H/L59F/I60S/T61S/Y62I/R64D/L81M): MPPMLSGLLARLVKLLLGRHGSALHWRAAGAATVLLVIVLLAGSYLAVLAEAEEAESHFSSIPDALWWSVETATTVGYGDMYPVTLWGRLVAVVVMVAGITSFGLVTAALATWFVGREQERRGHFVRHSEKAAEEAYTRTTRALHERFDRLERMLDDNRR
Experimental: (§1) Phage stock solutions were diluted to working concentration with phage resuspension buffer supplemented with 2 mM DDM. For protein immobilization, the following amounts were used in a final volume of 50 μl/well: wt KcsA, 0.1 μg; KcsA-Kv1.1 T-only, 0.005 μg; KcsA-Kv1.1 T+F, 0.02 μg; KcsA-Kv1.2 T-only, 0.01 μg; KcsA-Kv1.2 T+F, 0.1 μg; KcsA-Kv1.3 T-only, 0.01 μg; and KcsA-Kv1.3 T+F, 0.1 μg. Protein samples were diluted in 50 μl of storage buffer (20 mM Tris pH8.0, 300 mM KCl, 2 mM DDM) and were added to the designated wells of a Pierce Clear, 96-Well Nickel Coated Plate (15442, Thermo Fisher Scientific), then incubated for 1 h at room temperature on a horizontal shaker at 130 rpm. The plate was blocked for 1 h at room temperature with 180 μl/well TBS-BSA supplemented with 1 mM DDM. Following blocking, the wells were washed 4× with washing buffer (300 μl TBS-Tween, 0.1% v/v) using a Wellwash Versa microplate washer (Thermo Fisher Scientific); then 50 μl phage solution (in TBS-BSA-Tween, 0.1% v/v, 2 mM DDM) at determined phage concentration was added to the wells and incubated for 1 h at room temperature on a horizontal shaker. The plate was washed 4× with washing buffer, then 50 μl anti-M13 IgG HRP (MA5-36125, Invitrogen) diluted to 1:2500 in TBS-Tween (0.1% v/v) was added to the wells and incubated for 1 h at room temperature. The plate was washed again 4× with 300 μl/well washing buffer. Finally, 50 μl/well 1-Step Ultra TMB-ELISA solution (34028, Thermo Fisher Scientific) was added to the wells, and the developing signal was stopped with 50 μl 1M HCl after 5 to 10 min. The light absorbance signal was read at 450 nm with Byonoy absorbance 96 plate reader (Byonoy GmbH).
(§2) For protein immobilization, the following amounts were used in a final volume of 50 μl/well: KcsA-Kv1.1 T-only, 0.005 μg; KcsA-Kv1.1 T+F, 0.01 μg; KcsA-Kv1.2 T-only, 0.025 μg; KcsA-Kv1.2 T+F, 0.0125 μg; KcsA-Kv1.3 T-only, 0.01 μg; and KcsA-Kv1.3 T+F, 0.1 μg. Protein samples were diluted in storage buffer. Binding of given concentrations of relevant ligand-displaying phages quantified by light absorbance ([…]) were investigated in a similar manner as in phage ELISA-binding assay, while different concentrations of competing toxin test substances were applied simultaneously. The results were converted to percent inhibitions (percent displacement) of the indicator phage binding, and relative affinities of the tested toxins were assessed by plotting percent displacements against log concentrations and determining half maximal inhibitory concentrations (IC50) by sigmoidal curve fitting using “Sigmoidal dose-response (variable slope) with least squares method” algorithm in GraphPad Prism 8 using the following equation: Y=Bottom+Top−Bottom/1+10^(LogEC50−×)⋅HillSlope

KcsA-Kv1.1 T+F chimera [2] = molecular target: T2, KcsA-Kv1.1 T+F chimera (Streptomyces lividans, UniProt P0A334, A54E/A57S/G53E/G56E/I60S/L59F/L81M/P55A/Q58H/R52A/R64D/T61S/Y62I); assay: Phage-binding competition assay, KcsA-Kv1.1 T+F; parameters: species or system human Kv1.1 turret and filter in Streptomyces lividans KcsA
T2 sequence (P0A334 1-160 R52A/G53E/A54E/P55A/G56E/A57S/Q58H/L59F/I60S/T61S/Y62I/R64D/L81M): T1 sequence (P0A334 1-160 R52A/G53E/A54E/P55A/G56E/A57S/Q58H/L59F/I60S/T61S/Y62I/R64D/L81M)
Experimental: as §1, §2

[3] = displacement of ShK-phage, KcsA-Kv1.1 T+F 0.01 μg/well on nickel-coated plate, mean ± SD (n = 3), NQ = not quantifiable, read-out: IC50, T+F chimera (Kv1.1)

Structure (SMILES)	competition binding to KcsA-Kv1.1 T+F, in words (KcsA-Kv1.1 T+F chimera [1])	competition binding to KcsA-Kv1.1 T+F, in words (KcsA-Kv1.1 T+F chimera [1]; listed as MTX1)	Rank, T+F chimera (Kv1.1) (KcsA-Kv1.1 T+F chimera [1])	IC50 (KcsA-Kv1.1 T+F chimera [2]; [3])	IC50 (KcsA-Kv1.1 T+F chimera [2]; ShK-phage competition, T+F KcsA-Kv1.1, value given in figure, sigmoidal fit to means of three replicates, read-out: IC50 (Fig. 8F))
CC[C@H](C)[C@@H]1NC(=O)[C@@H]2CSSC[C@H](NC(=O)[C@H](CO)NC(=O)[C@@H](N)C(C)C)C(=O)N[C@@H]([C@@H](C)O)C(=O)NCC(=O)N[C@@H](CO)C(=O)N[C@@H](CCCCN)C(=O)N[C@@H](CC(=O)O)C(=O)N[C@@H](CSSC[C@@H](C(=O)N[C@@H](CCCCN)C(=O)N[C@H]3CSSC[C@@H](C(N)=O)NC(=O)CNC(=O)[C@H](Cc4ccc(O)cc4)NC3=O)NC(=O)[C@H](CO)NC(=O)[C@H](CCCCN)NC(=O)[C@H](CC(N)=O)NC1=O)C(=O)N[C@@H](Cc1ccc(O)cc1)C(=O)N[C@@H](C)C(=O)N1CCC[C@H]1C(=O)N[C@H]1CSSC[C@H](NC(=O)CNC(=O)[C@H]([C@@H](C)O)NC(=O)[C@H](CCC(N)=O)NC(=O)[C@H](CCCCN)NC(=O)[C@H](CCCNC(=N)N)NC1=O)C(=O)N1CCC[C@H]1C(=O)N[C@@H](CC(N)=O)C(=O)N[C@@H](C)C(=O)N[C@@H](CCCCN)C(=O)N2 [MTX, Maurotoxin] (HELM PEPTIDE1{V.S.C.T.G.S.K.D.C.Y.A.P.C.R.K.Q.T.G.C.P.N.A.K.C.I.N.K.S.C.K.C.Y.G.C.[am]}$PEPTIDE1,PEPTIDE1,3:R3-24:R3|PEPTIDE1,PEPTIDE1,9:R3-29:R3|PEPTIDE1,PEPTIDE1,13:R3-19:R3|PEPTIDE1,PEPTIDE1,31:R3-34:R3$$$V2.0; N-terminus and C-terminus assumed)	ShK > KTX1 > MTX	negligible binding	3	> 1000 nM	
CC[C@H](C)[C@H](NC(=O)[C@H](CCC(=O)O)NC(=O)[C@@H](NC(=O)CN)C(C)C)C(=O)N[C@@H](CC(N)=O)C(=O)N[C@H](C(=O)N[C@@H](CCCCN)C(=O)N[C@H]1CSSC[C@@H]2NC(=O)[C@H](CCCCN)NC(=O)CNC(=O)[C@H](Cc3ccccc3)NC(=O)[C@H](CCCNC(=N)N)NC(=O)[C@H](CCSC)NC(=O)CNC(=O)[C@H](C)NC(=O)[C@H](CC(=O)O)NC(=O)[C@H](CCCCN)NC(=O)[C@@H]3CSSC[C@@H](C(=O)N[C@H](C(=O)N4CCC[C@H]4C(=O)N[C@@H](CCCCN)C(=O)O)[C@@H](C)O)NC(=O)[C@H](Cc4c[nH]cn4)NC(=O)[C@H](CSSC[C@H](NC(=O)[C@H](CCC(N)=O)NC(=O)[C@@H]4CCCN4C(=O)[C@H](CO)NC(=O)CNC(=O)[C@H](CO)NC1=O)C(=O)N[C@@H](CC(C)C)C(=O)N[C@@H](CCCCN)C(=O)N1CCC[C@H]1C(=O)N3)NC(=O)[C@H](CCCCN)NC(=O)[C@H](CCCNC(=N)N)NC(=O)[C@H](CC(N)=O)NC(=O)[C@H](CCSC)NC2=O)C(C)C [KTX1, Kaliotoxin-1]	ShK > KTX1 > MTX		2	1.49 nM	
CC[C@H](C)[C@@H]1NC(=O)[C@@H](NC(=O)[C@H](CO)NC(=O)[C@@H](N)CCCNC(=N)N)CSSC[C@@H](C(=O)O)NC(=O)[C@H]([C@@H](C)O)NC(=O)CNC(=O)[C@@H]2CSSC[C@@H]3NC(=O)[C@H](CCC(N)=O)NC(=O)[C@H](Cc4ccccc4)NC(=O)[C@H](C)NC(=O)[C@H]([C@@H](C)O)NC(=O)[C@H](CSSC[C@H](NC(=O)[C@H](Cc4ccccc4)NC(=O)[C@H](CO)NC(=O)[C@H](CC(C)C)NC(=O)[C@H](CCCNC(=N)N)NC(=O)[C@H](Cc4ccc(O)cc4)NC(=O)[C@H](CCCCN)NC(=O)[C@H](CCSC)NC(=O)[C@H](CO)NC(=O)[C@H](Cc4c[nH]cn4)NC(=O)[C@H](CCCCN)NC3=O)C(=O)N[C@@H](CCCNC(=N)N)C(=O)N[C@@H](CCCCN)C(=O)N[C@@H]([C@@H](C)O)C(=O)N2)NC(=O)[C@H](CCCNC(=N)N)NC(=O)[C@H](CO)NC(=O)[C@H](CCCCN)NC(=O)[C@@H]2CCCN2C(=O)[C@H]([C@@H](C)CC)NC(=O)[C@H]([C@@H](C)O)NC(=O)[C@H](CC(=O)O)NC1=O [ShK, Stichodactyla toxin]	ShK > KTX1 > MTX		1		0.271 nM
